Data published in paper PMC5218480 (PLoS ONE, 2017).

Test system: MV-4-11 cells
Assay: Gene expression microarray analysis (Affymetrix PrimeView) and GSEA
Type: cell-based, human
Set-up: RFU PODN (11730768_x_at) / Fold change /veh PODN (11730768_x_at) / RFU LINC00158 (11744669_a_at) / Fold change /veh LINC00158 (11744669_a_at) / RFU DUSP10 (11751237_a_at) / Fold change /veh DUSP10 (11751237_a_at) / RFU ID3 (11757404_x_at) / Fold change /veh ID3 (11757404_x_at) / RFU PLEKHG5 (11737974_s_at) / Fold change /veh PLEKHG5 (11737974_s_at) / RFU LRRC4B (11730491_at) / Fold change /veh LRRC4B (11730491_at) / RFU GIMAP4 (11747438_a_at) / Fold change /veh GIMAP4 (11747438_a_at) / RFU KRT8 (11758183_x_at) / Fold change /veh KRT8 (11758183_x_at) / RFU CNN1 (11734310_a_at) / Fold change /veh CNN1 (11734310_a_at) / RFU VPS37D (11726825_at) / Fold change /veh VPS37D (11726825_at) / RFU C10orf10 (11716522_x_at) / Fold change /veh C10orf10 (11716522_x_at) / RFU KIR2DL2 /// KIR2DL4 /// KIR2DL5A /// KIR2DL5B /// KIR2DS1 /// KIR2DS2 /// KIR2DS3 /// KIR2DS4 /// KIR3DL3 /// KIR3DL3 /// KIR3DS1 (11738374_at) / Fold change /veh KIR2DL2 /// KIR2DL4 /// KIR2DL5A /// KIR2DL5B /// KIR2DS1 /// KIR2DS2 /// KIR2DS3 /// KIR2DS4 /// KIR3DL3 /// KIR3DL3 /// KIR3DS1 (11738374_at) / RFU C1QL1 (11718748_at) / Fold change /veh C1QL1 (11718748_at) / RFU TMPRSS4 (11747572_a_at) / Fold change /veh TMPRSS4 (11747572_a_at) / RFU HAMP (11756126_x_at) / Fold change /veh HAMP (11756126_x_at) / RFU RNFT2 (11725882_a_at) / Fold change /veh RNFT2 (11725882_a_at) / RFU NR4A2 (11747474_a_at) / Fold change /veh NR4A2 (11747474_a_at) / RFU ABCC12 (11746883_a_at) / Fold change /veh ABCC12 (11746883_a_at) / RFU TMEM136 (11760407_x_at) / Fold change /veh TMEM136 (11760407_x_at) / RFU CLDN22 /// WWC2 (11732394_at) / Fold change /veh CLDN22 /// WWC2 (11732394_at) / RFU HLA-DPB1 (11760878_x_at) / Fold change /veh HLA-DPB1 (11760878_x_at) / RFU SPINT1 (11716480_a_at) / Fold change /veh SPINT1 (11716480_a_at) / RFU GAP43 (11754022_s_at) / Fold change /veh GAP43 (11754022_s_at) / RFU A4GNT (11735810_at) / Fold change /veh A4GNT (11735810_at) / RFU PRB3 (11715151_x_at) / Fold change /veh PRB3 (11715151_x_at) / RFU TUBB4B (11761932_at) / Fold change /veh TUBB4B (11761932_at) / RFU CAPN14 (11732068_a_at) / Fold change /veh CAPN14 (11732068_a_at) / RFU TMCC2 (11721928_a_at) / Fold change /veh TMCC2 (11721928_a_at) / RFU IRGQ (11745062_a_at) / Fold change /veh IRGQ (11745062_a_at) / RFU FAM174B (11720279_a_at) / Fold change /veh FAM174B (11720279_a_at) / RFU TMPRSS4 (11748680_a_at) / Fold change /veh TMPRSS4 (11748680_a_at) / RFU FAM212B (11763350_a_at) / Fold change /veh FAM212B (11763350_a_at) / RFU PLEKHG5 (11743358_a_at) / Fold change /veh PLEKHG5 (11743358_a_at) / RFU ZSCAN30 (11745921_a_at) / Fold change /veh ZSCAN30 (11745921_a_at) / RFU CMKLR1 (11741424_a_at) / Fold change /veh CMKLR1 (11741424_a_at) / RFU LOC101060620 /// MAPK8IP1 (11723275_at) / Fold change /veh LOC101060620 /// MAPK8IP1 (11723275_at) / RFU SPTSSB (11747773_x_at) / Fold change /veh SPTSSB (11747773_x_at) / RFU PRSS12 (11739890_at) / Fold change /veh PRSS12 (11739890_at) / RFU BIN1 (11741810_x_at) / Fold change /veh BIN1 (11741810_x_at) / RFU WNT11 (11732464_a_at) / Fold change /veh WNT11 (11732464_a_at) / RFU C10orf10 (11716521_a_at) / Fold change /veh C10orf10 (11716521_a_at) / RFU C5orf56 (11738089_at) / Fold change /veh C5orf56 (11738089_at) / RFU CYB561 (11721691_x_at) / Fold change /veh CYB561 (11721691_x_at) / RFU ANKRD19P (11752326_a_at) / Fold change /veh ANKRD19P (11752326_a_at) / RFU OR2T12 /// OR2T33 /// OR2T8 (11738714_s_at) / Fold change /veh OR2T12 /// OR2T33 /// OR2T8 (11738714_s_at) / RFU VCAN (11748164_a_at) / Fold change /veh VCAN (11748164_a_at) / RFU JSRP1 (11732532_at) / Fold change /veh JSRP1 (11732532_at) / RFU KRTAP10-11 (11738290_x_at) / Fold change /veh KRTAP10-11 (11738290_x_at) / RFU MYO3A (11730013_a_at) / Fold change /veh MYO3A (11730013_a_at) / RFU EBF3 (11725865_a_at) / Fold change /veh EBF3 (11725865_a_at) / RFU CAMK2N1 (11719241_x_at) / Fold change /veh CAMK2N1 (11719241_x_at) / RFU C5orf56 (11738088_a_at) / Fold change /veh C5orf56 (11738088_a_at) / RFU OLFML3 (11715873_a_at) / Fold change /veh OLFML3 (11715873_a_at) / RFU LOC100653217 /// NTM (11731650_a_at) / Fold change /veh LOC100653217 /// NTM (11731650_a_at) / RFU MAPK11 (11762145_a_at) / Fold change /veh MAPK11 (11762145_a_at) / RFU FIZ1 (11724087_x_at) / Fold change /veh FIZ1 (11724087_x_at) / RFU OASL (11726364_x_at) / Fold change /veh OASL (11726364_x_at) / RFU SOX15 (11748057_x_at) / Fold change /veh SOX15 (11748057_x_at) / RFU CD79A (11719716_a_at) / Fold change /veh CD79A (11719716_a_at) / RFU HIST1H1D (11736915_at) / Fold change /veh HIST1H1D (11736915_at) / RFU CASKIN2 (11723855_a_at) / Fold change /veh CASKIN2 (11723855_a_at) / RFU LOC730098 (11760151_x_at) / Fold change /veh LOC730098 (11760151_x_at) / RFU OR4N2 (11742367_at) / Fold change /veh OR4N2 (11742367_at) / RFU PRRT2 (11749266_a_at) / Fold change /veh PRRT2 (11749266_a_at) / RFU SNX32 (11753110_a_at) / Fold change /veh SNX32 (11753110_a_at) / RFU CDHR5 (11726645_a_at) / Fold change /veh CDHR5 (11726645_a_at) / RFU RCAN1 (11760418_a_at) / Fold change /veh RCAN1 (11760418_a_at) / RFU FAM167A (11723789_a_at) / Fold change /veh FAM167A (11723789_a_at) / RFU FAM26E (11764081_at) / Fold change /veh FAM26E (11764081_at) / RFU ISYNA1 (11749810_s_at) / Fold change /veh ISYNA1 (11749810_s_at) / RFU ACY1 (11761880_at) / Fold change /veh ACY1 (11761880_at) / RFU 11764098_at / Fold change /veh 11764098_at / RFU SAMD14 (11745864_x_at) / Fold change /veh SAMD14 (11745864_x_at) / RFU NPB (11741838_a_at) / Fold change /veh NPB (11741838_a_at) / RFU TMPRSS6 (11731388_a_at) / Fold change /veh TMPRSS6 (11731388_a_at) / RFU KRTAP10-2 (11738614_at) / Fold change /veh KRTAP10-2 (11738614_at) / RFU ARHGAP8 /// PRR5-ARHGAP8 (11727945_x_at) / Fold change /veh ARHGAP8 /// PRR5-ARHGAP8 (11727945_x_at) / RFU KRTAP5-7 /// NADSYN1 (11734609_at) / Fold change /veh KRTAP5-7 /// NADSYN1 (11734609_at) / RFU RASL12 (11751679_a_at) / Fold change /veh RASL12 (11751679_a_at) / RFU CDKN2B (11736163_a_at) / Fold change /veh CDKN2B (11736163_a_at) / RFU PRF1 (11729649_at) / Fold change /veh PRF1 (11729649_at) / RFU, ZNF638 /// ZNF638-IT1 / Fold change vs veh, ZNF638 /// ZNF638-IT1 / RFU, PANK3 / Fold change vs veh, PANK3 / RFU, SH3YL1 / Fold change vs veh, SH3YL1 / RFU, ZEB2 / Fold change vs veh, ZEB2 / RFU, NRIP1 / Fold change vs veh, NRIP1 / RFU, PTTG1IP / Fold change vs veh, PTTG1IP / RFU, CAPN2 / Fold change vs veh, CAPN2 / RFU, MED14 / Fold change vs veh, MED14 / RFU, SNORA58 / Fold change vs veh, SNORA58 / RFU, C1orf63 / Fold change vs veh, C1orf63 / RFU, LRRFIP1 / Fold change vs veh, LRRFIP1 / RFU, NDUFAF7 / Fold change vs veh, NDUFAF7 / RFU, SLC12A2 / Fold change vs veh, SLC12A2 / RFU, IBTK / Fold change vs veh, IBTK / RFU, ESF1 / Fold change vs veh, ESF1 / Fold change vs veh, TMEM50B / RFU, TAOK1 / Fold change vs veh, TAOK1 / RFU, ACBD3 / Fold change vs veh, ACBD3 / RFU, TMA16 / Fold change vs veh, TMA16 / RFU, RWDD3 / Fold change vs veh, RWDD3 / RFU, BCAT1 / Fold change vs veh, BCAT1 / RFU, EDEM3 / Fold change vs veh, EDEM3 / RFU, TMEM33 / Fold change vs veh, TMEM33 / RFU, WDR75 / Fold change vs veh, WDR75 / RFU, AHCTF1 / Fold change vs veh, AHCTF1 / RFU, TFRC / Fold change vs veh, TFRC / RFU, ZDHHC17 / Fold change vs veh, ZDHHC17 / RFU, NOM1 / Fold change vs veh, NOM1 / RFU, ARL8B / Fold change vs veh, ARL8B / RFU, ZBTB11 / Fold change vs veh, ZBTB11 / RFU, TAMM41 / Fold change vs veh, TAMM41 / RFU, KIAA1704 /// LOC100996395 / Fold change vs veh, KIAA1704 /// LOC100996395 / RFU, ING1 / Fold change vs veh, ING1 / RFU, TRMT61B / Fold change vs veh, TRMT61B / RFU, FUBP3 / Fold change vs veh, FUBP3 / RFU, TP53 / Fold change vs veh, TP53 / RFU, TNKS2 / Fold change vs veh, TNKS2 / RFU, ZFP14 / Fold change vs veh, ZFP14 / RFU, ACTR2 / Fold change vs veh, ACTR2 / RFU, PPP3R1 / Fold change vs veh, PPP3R1 / RFU, PIK3R1 / Fold change vs veh, PIK3R1 / RFU, HNRNPA1 / Fold change vs veh, HNRNPA1 / RFU, RNF170 / Fold change vs veh, RNF170 / RFU, ZNF28 / Fold change vs veh, ZNF28 / RFU, RNGTT / Fold change vs veh, RNGTT / RFU, OGT / Fold change vs veh, OGT / RFU, BRD1 / Fold change vs veh, BRD1 / RFU, MARS / Fold change vs veh, MARS / RFU, ZNF655 / Fold change vs veh, ZNF655 / RFU, FAHD1 / Fold change vs veh, FAHD1 / RFU, BDP1 / Fold change vs veh, BDP1 / RFU, LRRCC1 / Fold change vs veh, LRRCC1 / RFU, ARID1A / Fold change vs veh, ARID1A / RFU, ZNF146 / Fold change vs veh, ZNF146 / RFU, ZNF330 / Fold change vs veh, ZNF330 / RFU, GPN3 / Fold change vs veh, GPN3 / RFU, C9orf123 / Fold change vs veh, C9orf123 / RFU, N4BP2L2 / Fold change vs veh, N4BP2L2 / RFU, ARFIP1 / Fold change vs veh, ARFIP1 / RFU, FAM179B / Fold change vs veh, FAM179B / RFU, BCL10 / Fold change vs veh, BCL10 / RFU, UHRF1BP1L / Fold change vs veh, UHRF1BP1L / RFU, BET1 / Fold change vs veh, BET1 / RFU, CNOT2 / Fold change vs veh, CNOT2 / RFU, ZNF268 / Fold change vs veh, ZNF268 / Fold change vs veh, ZNF507 / RFU, DGCR2 / Fold change vs veh, DGCR2 / RFU, WDSUB1 / Fold change vs veh, WDSUB1 / Fold change vs veh, HSP90B1 /// MIR3652 / RFU, ADSS / Fold change vs veh, ADSS / RFU, GK / Fold change vs veh, GK / RFU, ZNF148 / Fold change vs veh, ZNF148 / RFU, TAF9 / Fold change vs veh, TAF9 / RFU, SLC1A5 / Fold change vs veh, SLC1A5 / RFU, SLMO2 / Fold change vs veh, SLMO2 / RFU, ABCC4 / Fold change vs veh, ABCC4 / RFU, LOC101060439 /// RAP1B / Fold change vs veh, LOC101060439 /// RAP1B / RFU, RFX7 / Fold change vs veh, RFX7 / RFU, GTPBP10 / Fold change vs veh, GTPBP10 / RFU, CNEP1R1 / Fold change vs veh, CNEP1R1 / RFU, BIVM-ERCC5 /// ERCC5 / Fold change vs veh, BIVM-ERCC5 /// ERCC5 / RFU, ILF3 / Fold change vs veh, ILF3 / RFU 11762660_at / Fold change /veh 11762660_at / RFU VCAN (11757783_s_at) / Fold change /veh VCAN (11757783_s_at) / RFU DDX43 (11728927_at) / Fold change /veh DDX43 (11728927_at) / RFU KRT8 (11758188_x_at) / Fold change /veh KRT8 (11758188_x_at) / RFU NKD1 (11759106_at) / Fold change /veh NKD1 (11759106_at) / RFU SRD5A1 (11742802_a_at) / Fold change /veh SRD5A1 (11742802_a_at) / RFU TPSAB1 /// TPSB2 (11721975_s_at) / Fold change /veh TPSAB1 /// TPSB2 (11721975_s_at) / RFU GSTM3 (11746129_a_at) / Fold change /veh GSTM3 (11746129_a_at) / RFU IL23R (11737362_x_at) / Fold change /veh IL23R (11737362_x_at) / RFU TMEM51 (11727254_a_at) / Fold change /veh TMEM51 (11727254_a_at) / RFU PIWIL2 (11732686_x_at) / Fold change /veh PIWIL2 (11732686_x_at) / RFU ORM1 (11744905_x_at) / Fold change /veh ORM1 (11744905_x_at) / RFU CCDC152 (11743942_at) / Fold change /veh CCDC152 (11743942_at) / RFU ECM1 (11717891_a_at) / Fold change /veh ECM1 (11717891_a_at) / RFU IL23R (11748794_a_at) / Fold change /veh IL23R (11748794_a_at) / RFU TNFAIP8L3 (11732012_x_at) / Fold change /veh TNFAIP8L3 (11732012_x_at) / RFU MBOAT4 (11741988_at) / Fold change /veh MBOAT4 (11741988_at) / RFU 11764193_at / Fold change /veh 11764193_at / RFU TMEM53 (11763286_at) / Fold change /veh TMEM53 (11763286_at) / RFU MAGEB2 (11727129_at) / Fold change /veh MAGEB2 (11727129_at) / RFU TMEM200A (11744735_a_at) / Fold change /veh TMEM200A (11744735_a_at) / RFU CCDC152 (11751479_a_at) / Fold change /veh CCDC152 (11751479_a_at) / RFU FAM211A (11726209_a_at) / Fold change /veh FAM211A (11726209_a_at) / RFU RGS16 (11746705_a_at) / Fold change /veh RGS16 (11746705_a_at) / RFU VCAN (11755009_s_at) / Fold change /veh VCAN (11755009_s_at) / RFU RHOB (11743442_s_at) / Fold change /veh RHOB (11743442_s_at) / RFU RGS16 (11720943_a_at) / Fold change /veh RGS16 (11720943_a_at) / RFU RGS16 (11720944_at) / Fold change /veh RGS16 (11720944_at) / RFU, VPS4B / Fold change vs veh, VPS4B / RFU, CREB1 / Fold change vs veh, CREB1 / RFU, DNAJC13 / Fold change vs veh, DNAJC13 / RFU, GNAQ / Fold change vs veh, GNAQ / RFU, CDK5R1 / Fold change vs veh, CDK5R1 / RFU, ZRANB3 / Fold change vs veh, ZRANB3 / RFU, CUL4A / Fold change vs veh, CUL4A / RFU, CCNY / Fold change vs veh, CCNY / RFU, UFL1 / Fold change vs veh, UFL1 / RFU, COG3 / Fold change vs veh, COG3 / RFU, DIAPH2 / Fold change vs veh, DIAPH2 / RFU, SKA2 / Fold change vs veh, SKA2 / RFU, AFF3 / Fold change vs veh, AFF3 / RFU, LMF1 / Fold change vs veh, LMF1 / RFU, IPO11 / Fold change vs veh, IPO11 / RFU, DFFB / Fold change vs veh, DFFB / RFU, FOXP1 / Fold change vs veh, FOXP1 / RFU, CARD8 / Fold change vs veh, CARD8 / RFU, STRN3 / Fold change vs veh, STRN3 / RFU, ADK / Fold change vs veh, ADK / RFU, RASSF2 / Fold change vs veh, RASSF2 / RFU, WIPF1 / Fold change vs veh, WIPF1 / RFU, LARP1B / Fold change vs veh, LARP1B / RFU, RASA1 / Fold change vs veh, RASA1 / RFU, RB1 / Fold change vs veh, RB1 / RFU, PPFIA1 / Fold change vs veh, PPFIA1 / RFU, MAT2A / Fold change vs veh, MAT2A / RFU, CCT5 / Fold change vs veh, CCT5 / RFU, WDR92 / Fold change vs veh, WDR92 / RFU, CUX1 / Fold change vs veh, CUX1 / RFU, TTC7A / Fold change vs veh, TTC7A / RFU, TMEM135 / Fold change vs veh, TMEM135 / RFU, DEPTOR / Fold change vs veh, DEPTOR / RFU, CPM / Fold change vs veh, CPM / RFU, DNAJB6 / Fold change vs veh, DNAJB6 / RFU, CACNA2D3 / Fold change vs veh, CACNA2D3 / RFU, DTX4 / Fold change vs veh, DTX4 / RFU, TFCP2 / Fold change vs veh, TFCP2 / RFU, GMCL1 /// GMCL1P1 / Fold change vs veh, GMCL1 /// GMCL1P1 / RFU, AEBP2 / Fold change vs veh, AEBP2 / RFU, SNHG1 /// SNORD22 /// SNORD25 /// SNORD26 /// SNORD27 /// SNORD28 /// SNORD29 /// SNORD31 / Fold change vs veh, SNHG1 /// SNORD22 /// SNORD25 /// SNORD26 /// SNORD27 /// SNORD28 /// SNORD29 /// SNORD31 / Fold change (Aza/veh), C12orf56 (ProbeSet 11735607_a_at) / Fold change (ACY-1035/veh), C12orf56 (ProbeSet 11735607_a_at) / Fold change (Aza/veh), FGFR1OP (ProbeSet 11751329_s_at) / Fold change (ACY-1035/veh), FGFR1OP (ProbeSet 11751329_s_at) / Fold change (Aza/veh), VPS36 (ProbeSet 11739960_a_at) / Fold change (ACY-1035/veh), VPS36 (ProbeSet 11739960_a_at) / RFU SYPL1 (11715823_x_at) / Fold change /veh SYPL1 (11715823_x_at) / RFU IGFBP7 (11715501_s_at) / Fold change /veh IGFBP7 (11715501_s_at) / RFU REEP3 (11722064_at) / Fold change /veh REEP3 (11722064_at) / RFU IGLL1 (11728026_x_at) / Fold change /veh IGLL1 (11728026_x_at): dose or concentration left out as unconfirmed
Conditions: ProbeSet 11719632_a_at; LIST B

In the case of Nc1ncn([C@@H]2O[C@H](CO)[C@@H](O)[C@H]2O)c(=O)n1 [azacitidine], the “RFU, ABCC4” value is reported as 39.11 RFU.
